Laboratory results taken from US20130267474A1, “NOVEL PHYTOCHEMICALS FROM EXTRACTS OF MAPLE SYRUPS AND MAPLE TREES AND USES THEREOF” (UNIVERSITY OF RHODE ISLAND, priority 2010, published 2013).
Like-named read-outs stand apart in the source and are kept apart here.

Tests used:
CCD-18Co cells = assay: Flow cytometry analysis of cell cycle; format: cell-based, human; conditions: 48 and 72 h
Experimental: (§1) (2×10^5) are collected after the corresponding experimental periods, fixed in ice-cold ethanol:PBS (70:30, v/v) for 30 min at 4° C., further resuspended in PBS with 100 μg ml^−1 RNAse and 40 μg ml^−1 propidium iodide, and then incubated at 37° C. for 30 min. The DNA content (10,000 cells) is analyzed using a FACS Calibur instrument equipped with FACStation running FACS Calibur software (BD Biosciences, San Diego, Calif., USA). The analyses of cell cycle distribution are performed in triplicate for each treatment (tested at 50 μg/mL concentrations). The coefficient of variation, according to the ModFit LT Version 2 acquisition software package (Verity Software House, Topsham, Me., USA), is always less than 5%.
as §1, with “Cells (2×10^5)” for “(2×10^5)”, “μg/mL” for “μg ml^−1”, “and” for “and then”, “min.” for “min. The”, “analysed” for “analyzed”, “treatment.” for “treatment (tested at 50 μg/mL concentrations).”

[1] = system: HT-29 (human colon adenocarcinoma); assay: MTS cytotoxicity / antiproliferative assay; format: cell-based; conditions: Homo sapiens
[2] = system: HCT-116 (human colon carcinoma); assay: MTS cytotoxicity / antiproliferative assay; format: cell-based; conditions: Homo sapiens
[3] = system: Caco-2 (human epithelial colorectal adenocarcinoma); assay: MTS cytotoxicity / antiproliferative assay; format: cell-based; conditions: Homo sapiens
[4] = system: CCD-18Co (normal human colon fibroblasts); assay: MTS cytotoxicity / antiproliferative assay; format: cell-based; conditions: Homo sapiens, CCD-18Co
[5] = system: colon cancer (HCT-116, Caco-2 and HT-29) cell lines; assay: MTS antiproliferative assay, statements pooled over the colon cancer cell lines

For `COc1cc([C@@H]2c3cc4c(cc3[C@@H](O[C@@H]3O[C@@H]5CO[C@@H](C)O[C@H]5[C@H](O)[C@H]3O)[C@H]3COC(=O)[C@H]23)OCO4)cc(OC)c1O` [Etoposide, reference compound], the “changes in cell cycle compared with control cells” value (CCD-18Co cells) was “slight but significant changes in the S phase”, the IC50 ([1]; HT-29, 48 h, read-out: HT-29 48 h (IC50), 48 h) was 13.4 µM and the IC50 ([1]; HT-29, 48 h, read-out: HT-29 48 h(IC50), Table 6 maple compounds, 48 h, unit inferred) was 21.2 µM. It also gave an IC50 ([1]; HT-29, 48 h, read-out: HT-29 48 h(IC50), Table 7 maple extracts, 48 h, unit inferred) of 13.4 µM, an IC50 ([1]; HT-29, 72 h, 72 h, read-out: HT-29 72 h (IC50)) of 7.3 µM and an IC50 ([1]; HT-29, 72 h, Table 6 maple compounds, 72 h, unit inferred, read-out: HT-29 72 h(IC50)) of 12.9 µM. The IC50 ([1]; HT-29, 72 h, Table 7 maple extracts, 72 h, unit inferred, read-out: HT-29 72 h(IC50)) was 7.3 µM, the IC50 ([2]; HCT-116, 48 h, read-out: HCT-116 48 h (IC50), 48 h) was 26.9 µM and the IC50 ([2]; HCT-116, 48 h, read-out: HCT-116 48 h(IC50), Table 6 maple compounds, 48 h, unit inferred) was 28.5 µM. For the same compound, the IC50 ([2]; HCT-116, 72 h, 72 h, read-out: HCT-116 72 h (IC50)) was 14.4 µM, the IC50 ([2]; HCT-116, 72 h, Table 6 maple compounds, 72 h, unit inferred, read-out: HCT-116 72 h(IC50)) was 21.9 µM and the IC50 ([2]; HCT-116, 72 h, Table 7 maple extracts, 72 h, unit inferred, read-out: HCT-116 72 h(IC50)) was 14.4 µM. It also gave an IC50 ([3]; Caco-2, 48 h, read-out: Caco-2 48 h (IC50), 48 h) of 18.9 µM, an IC50 ([3]; Caco-2, 48 h, read-out: Caco-2 48 h(IC50), Table 6 maple compounds, 48 h, unit inferred) of 14.3 µM and an IC50 ([3]; Caco-2, 72 h, 72 h, read-out: Caco-2 72 h (IC50)) of 16.1 µM. It also gave an IC50 ([3]; Caco-2, 72 h, Table 6 maple compounds, 72 h, unit inferred, read-out: Caco-2 72 h(IC50)) of 12.3 µM, an IC50 ([3]; Caco-2, 72 h, Table 7 maple extracts, 72 h, unit inferred, read-out: Caco-2 72 h(IC50)) of 16.1 µM and an IC50 ([4]; 48 h, read-out: CCD-18Co 48 h (IC50), 48 h) of 48.7 µM. For the same compound, the IC50 ([4]; 48 h, read-out: CCD-18Co 48 h(IC50), Table 6 maple compounds, 48 h, unit inferred) was 45.1 µM, the IC50 ([4]; 72 h, Table 6 maple compounds, 72 h, unit inferred, read-out: CCD-18Co 72 h(IC50)) was 42.4 µM and the IC50 ([4]; 72 h, read-out: CCD-18Co 72 h (IC50)) was 43.9 µM. It also gave an IC50 ([4]; CCD-18Co cells, read-out: IC50 of positive control, MTS) of 40 to 45 µM, an IC50 ([4]; positive control, footnote of Table 16, read-out: IC50 for the CCD-18Co cells) of 30 to 40 µM and an IC50 ([5]; Homo sapiens, read-out: IC50 (HT29, HCT116 and Caco-2), positive control, footnote of Table 16) of 10 to 20 µM. For the same compound, the IC50 ([5]; Homo sapiens, read-out: IC50 of positive control, MTS, HT-29, HCT116 and Caco-2) was 15 to 25 µM and the IC50 ([5]; read-out: IC50 of positive control, MTS, HT-29, HCT116 and Caco-2) was 10 to 20 µM.
